Drawing on patent publication US11083196B2, “Microbiocidal oxadiazole derivatives” (SYNGENTA PARTICIPATIONS AG, priority 2016, dated 2021), this text covers melting point and inhibition of growth for 30 compounds.

For data set [1], the system named is Glomerella lagenarium (Colletotrichum lagenarium). The data set is described as follows: Fungicidal activity against Glomerella lagenarium (Colletotrichum lagenarium), liquid culture / cucumber / preventative (anthracnose). The format is cell-based. Particulars: Colletotrichum orbiculare, liquid culture (PDB), growth inhibition measured photometrically 3-4 days after application, compared to untreated control. The protocol: Mycelia fragments or conidia suspensions of a fungus, prepared either freshly from liquid cultures of the fungus or from cryogenic storage, are directly mixed into nutrient broth. DMSO solutions of the test compound (max. 10 mg/ml) is diluted with 0.025% Tween20 by a factor of 50 and 10 μl of this solution is pipetted into a microtiter plate (96-well format). The nutrient broth containing the fungal spores/mycelia fragments is then added to give an end concentration of the tested compound. The test plates are incubated in the dark at 24° C. and 96% relative humidity. The inhibition of fungal growth is determined photometrically after 2 to 7 days, depending on the pathosystem, and percent antifungal activity relative to the untreated check is calculated. Conidia of the fungus from cryogenic storage are directly mixed into nutrient broth (PDB potato dextrose broth). After placing a (DMSO) solution of test compound into a microtiter plate (96-well format), the nutrient broth containing the fungal spores is added. The test plates are incubated at 24° C. and the inhibition of growth is measured photometrically 3-4 days after application.

As usually defined, the melting point is the temperature, or range, at which the solid turns liquid. A word on the inhibition of growth: it is the drop in the measured response relative to a control, in per cent. A higher inhibition of growth goes with strong suppression.

A value given as a limit tells only on which side of the number the result lay.

Compound `FC(F)(F)c1nc(-c2ccc(-c3ccc(Cl)nc3)cc2)no1` [Compound D-27, 3-[4-(6-chloro-3-pyridyl)phenyl]-5-(trifluoromethyl)-1,2,4-oxadiazole] showed a melting point of 140 to 145 °C.
Take `CCNC(=O)Nc1ccc(-c2ccc(-c3noc(C(F)(F)F)n3)cc2)cn1` [Compound D-2, 1-ethyl-3-[5-[4-[5-(trifluoromethyl)-1,2,4-oxadiazol-3-yl]phenyl]-2-pyridyl]urea]: the melting point was in the range of 190 to 195 °C.
Regarding `FC(F)(F)c1nc(-c2ccc(-c3cccc(Cl)n3)cc2)no1` [Compound D-22, 3-[4-(6-chloro-2-pyridyl)phenyl]-5-(trifluoromethyl)-1,2,4-oxadiazole], the melting point was in the range of 115 to 120 °C.
`CCNc1ccc(-c2ccc(-c3noc(C(F)(F)F)n3)cc2)cn1` [Compound D-20, N-ethyl-5-[4-[5-(trifluoromethyl)-1,2,4-oxadiazol-3-yl]phenyl]pyridin-2-amine] came in with a melting point of 120 to 125 °C.
In the case of `O=C(C1CC1)N(C(=O)C1CC1)c1ccc(-c2ccc(-c3noc(C(F)(F)F)n3)cc2)cn1` [Compound D-10, N-(cyclopropanecarbonyl)-N-[5-[4-[5-(trifluoromethyl)-1,2,4-oxadiazol-3-yl]phenyl]-2-pyridyl]cyclopropane carboxamide], the melting point lay within 150 to 155 °C.
`COC(=O)C1(c2ccc(-c3noc(C(F)(F)F)n3)cc2)C(C)=C(C#N)C(=O)N1C` (stereo not shown) [Compound A-41, methyl 4-cyano-1,3-dimethyl-5-oxo-2-[4-[5-(trifluoromethyl)-1,2,4-oxadiazol-3-yl]phenyl]pyrrole-2-carboxylate] displayed an inhibition of growth at 20 ppm in data set [1] of no less than 80%.
For the compound `FC(F)(F)c1nc(-c2ccc(-c3ccc(N4CCOCC4)nc3)cc2)no1` [Compound D-23, 4-[5-[4-[5-(trifluoromethyl)-1,2,4-oxadiazol-3-yl]phenyl]-2-pyridyl]morpholine], the melting point was in the range of 150 to 155 °C.
Take `CCNC(=O)Nc1cc(-c2ccc(-c3noc(C(F)(F)F)n3)cc2)ccn1` [Compound D-3, 1-ethyl-3-[4-[4-[5-(trifluoromethyl)-1,2,4-oxadiazol-3-yl]phenyl]-2-pyridyl]urea]: the melting point lay in the range of 180 to 185 °C.
Consider `Fc1cccc(-c2ccc(-c3noc(C(F)(F)F)n3)cc2)n1` [Compound D-5, 3-[4-(6-fluoro-2-pyridyl)phenyl]-5-(trifluoromethyl)-1,2,4-oxadiazole], for which the melting point was in the range of 75 to 80 °C. In addition, in data set [1], the inhibition of growth at 20 ppm is no less than 80%.
`FC(F)(F)c1nc(-c2ccc(C3CC(c4ccccc4)=NO3)cc2)no1` (stereo not shown) [Compound A-50, 3-[4-(3-phenyl-4,5-dihydroisoxazol-5-yl)phenyl]-5-(trifluoromethyl)-1,2,4-oxadiazole]: the melting point was in the range of 139 to 142 °C.
In the case of `O=C(Nc1ccc(-c2ccc(-c3noc(C(F)(F)F)n3)cc2)cn1)C(F)(F)F` [Compound D-13, 2,2,2-trifluoro-N-[5-[4-[5-(trifluoromethyl)-1,2,4-oxadiazol-3-yl]phenyl]-2-pyridyl]acetamide], the melting point is 135 to 140 °C. Moreover, in data set [1], the inhibition of growth at 20 ppm was no less than 80%.
As to `CCNC(=O)Nc1cccc(-c2ccc(-c3noc(C(F)(F)F)n3)cc2)n1` [Compound D-1, 1-ethyl-3-[6-[4-[5-(trifluoromethyl)-1,2,4-oxadiazol-3-yl]phenyl]-2-pyridyl]urea], the melting point fell in the range of 200 to 205 °C.
In data set [1], `COc1ccccc1C1CC(c2ccc(-c3noc(C(F)(F)F)n3)cc2)=NO1` (stereo not shown) [Compound A-48, 3-[4-[5-(2-methoxyphenyl)-4,5-dihydroisoxazol-3-yl]phenyl]-5-(trifluoromethyl)-1,2,4-oxadiazole] displayed an inhibition of growth at 20 ppm of no less than 80%.
As for `Nc1cc(-c2ccc(-c3noc(C(F)(F)F)n3)cc2)ccn1` [Compound D-18, 4-[4-[5-(trifluoromethyl)-1,2,4-oxadiazol-3-yl]phenyl]pyridin-2-amine], the melting point lay in the range of 195 to 200 °C.
The compound `O=C(Nc1ccc(-c2ccc(-c3noc(C(F)(F)F)n3)cc2)cn1)C1CC1` [Compound D-11, N-[5-[4-[5-(trifluoromethyl)-1,2,4-oxadiazol-3-yl]phenyl]-2-pyridyl]cyclopropane carboxamide] registered a melting point of 175 to 180 °C.
`FC(F)(F)C1=NOC(c2ccc(-c3noc(C(F)(F)F)n3)cc2)C1` (stereo not shown) [Compound A-14, 5-(trifluoromethyl)-3-[4-[3-(trifluoromethyl)-4,5-dihydroisoxazol-5-yl]phenyl]-1,2,4-oxadiazole] came in with a melting point of 65 to 69 °C. Besides, the inhibition of growth at 20 ppm in data set [1] was no less than 80%.
`FC(F)(F)c1nc(-c2ccc(-c3cc(C4CC4)no3)cc2)no1` [Compound C-10, 3-[4-(3-cyclopropylisoxazol-5-yl)phenyl]-5-(trifluoromethyl)-1,2,4-oxadiazole] showed a melting point of 143 to 146 °C.
Same read-out and setting: the same measure for `O=C(Nc1cc(-c2ccc(-c3noc(C(F)(F)F)n3)cc2)ccn1)C1CC1` [Compound D-17, N-[4-[4-(5-(triftuoromethyl)-1,2,4-oxadiazol-3-yl]phenyl]-2-pyridyl]cyclopropane carboxamide]: 140 to 145 °C.
The same measure, in the same setting: the same measure for `FC(F)(F)c1nc(-c2ccc(N3CCCCO3)cc2)no1` [Compound B-1, 2-[4-[5-(trifluoromethyl)-1,2,4-oxadiazol-3-yl]phenyl]oxazinane]: 94 to 96 °C; for `O=C(C1CC1)N(C(=O)C1CC1)c1cc(-c2ccc(-c3noc(C(F)(F)F)n3)cc2)ccn1` [Compound D-16, N-(cyclopropanecarbonyl)-N-[4-[4-[5-(trifluoromethyl)-1,2,4-oxadiazol-3-yl]phenyl]-2-pyridyl]cyclopropane carboxamide]: 120 to 125 °C; for `FC(F)(F)c1nc(-c2ccc(-c3nc(-c4cccnc4)cs3)cc2)no1` [Compound C-12, 3-[4-[4-(3-pyridyl)thiazol-2-yl]phenyl]-5-(trifluoromethyl)-1,2,4-oxadiazole]: 142 to 143 °C.
`FC(F)(F)c1nc(-c2ccc(C3CC(C4CCCCC4)=NO3)cc2)no1` (stereo not shown) [Compound A-7, 3-[4-(3-cyclohexyl-4,5-dihydroisoxazol-5-yl)phenyl]-5-(trifluoromethyl)-1,2,4-oxadiazole]: the melting point was in the range of 79 to 82 °C. Further, the inhibition of growth at 20 ppm in data set [1] was no less than 80%.
In the case of `FC(F)(F)c1nc(-c2ccc(-c3ccnc(N4CCOCC4)c3)cc2)no1` [Compound D-25, 4-[4-[4-[5-(trifluoromethyl)-1,2,4-oxadiazol-3-yl]phenyl]-2-pyridyl]morpholine], the melting point lay within 95 to 100 °C. In addition, in data set [1], the inhibition of growth at 20 ppm was no less than 80%.
Regarding `CCNc1cccc(-c2ccc(-c3noc(C(F)(F)F)n3)cc2)n1` [Compound D-8, N-ethyl-6-[4-[5-(trifluoromethyl)-1,2,4-oxadiazol-3-yl]phenyl]pyridin-2-amine], the melting point lay within 120 to 125 °C. The compound further came in with an inhibition of growth at 20 ppm in data set [1] of no less than 80%.
`FC(F)(F)c1nc(-c2ccc(C3CC(c4ccncc4)=NO3)cc2)no1` (stereo not shown) [Compound A-49, 3-[4-[3-(4-pyridyl)-4,5-dihydroisoxazol-5-yl]phenyl]-5-(trifluoromethyl)-1,2,4-oxadiazole] yielded an inhibition of growth at 20 ppm in data set [1] of no less than 80%.
In turn, `FC(F)(F)c1nc(-c2ccc(-c3ccc(NC4CC4)nc3)cc2)no1` [Compound D-21, N-cyclopropyl-5-[4-[5-(trifluoromethyl)-1,2,4-oxadiazol-3-yl]phenyl]pyridin-2-amine] displayed a melting point of 135 to 140 °C.
In turn, `O=C(Nc1cccc(-c2ccc(-c3noc(C(F)(F)F)n3)cc2)n1)C1CC1` [Compound D-14, N-[6-[4-[5-(trifluoromethyl)-1,2,4-oxadiazol-3-yl]phenyl]-2-pyridyl]cyclopropane carboxamide] returned a melting point of 125 to 130 °C.
On the same count and under the same terms, the same measure for `CCNc1cc(-c2ccc(-c3noc(C(F)(F)F)n3)cc2)ccn1` [Compound D-9, N-ethyl-4-[4-[5-(trifluoromethyl)-1,2,4-oxadiazol-3-yl]phenyl]pyridin-2-amine]: 130 to 135 °C.
Compound `O=C(Nc1cccc(-c2ccc(-c3noc(C(F)(F)F)n3)cc2)n1)C(F)(F)F` [Compound D-4, 2,2,2-trifluoro-N-[6-[4-[5-(trifluoromethyl)-1,2,4-oxadiazol-3-yl]phenyl]-2-pyridyl]acetamide] returned a melting point of 125 to 130 °C. This compound also yielded an inhibition of growth at 20 ppm in data set [1] of no less than 80%.
For `FC(F)(F)c1nc(-c2ccc(-c3cccc(N4CCOCC4)n3)cc2)no1` [Compound D-24, 4-[6-[4-[5-(trifluoromethyl)-1,2,4-oxadiazol-3-yl]phenyl]-2-pyridyl]morpholine], the melting point was in the range of 100 to 105 °C.
